US8937176B2, “Compounds” (Boehringer Ingelheim International GmbH, priority 2011, dated 2015)

Target: T1, human recombinant mGluR5 (Homo sapiens, UniProt P41594)
T1 construct: expressed in transfected cells; host or cells: HEK 293 cell line
Assay: Positive modulation of mGluR5, calcium based FLIPR assay in HEK 293 cells
Settings: EC50 of the modulation; HEK 293 cell line expressing human recombinant mGluR5; glutamate at approximately 5% basal stimulation; peak height of Ca release fluorescence signal
Experimental: The positive modulation of mGluR5 is measured in a HEK 293 cell line expressing human recombinant mGluR5 and is detected with calcium based FLIPR assay. The cells are cultured with DMEM supplemented with 10% FCS, 2 μg/mL tetracycline, 100 μg/mL hygromycin and 500 μg/mL gneticin. The cell culture media is exchanged for tetracycline-free cell culture media 3-7 days before the assay. One day before the assay the cell culture medium is exchanged to DMEM without glutamine and phenol red and supplemented with 10% FCS, 100 μg/mL hygromycin and 500 μg/mL geneticin. On the assay day, the medium of the subconfluent cultures is removed and the cells are detached by addition of 2.5 ml EDTA(0.02%) per 175 cm2 culture flask for 1 minute. The cells are resuspend in Ringer solution (140 mM NaCl, 5 mM KCl, 2.5 mM CaCl2, 1.5 mM MgCl2, 5 mM Glucose, 10 mM Hepes; adjusted to pH 7.4 with NaOH), pooled and Ringer solution added to adjust the volume to 50 mL. The cell suspension is centrifuged for […] at 1500 U/min (425 g). The supernatant is removed and the cells washed a second time with 50 ml fresh Ringer solution and centrifuged again as before. The supernatant is again removed and the pellet resuspended in Ringer solution to 1,000,000 cells/ml (1×10^6 cells/mL). The cells are plated onto BD BioCoat Poly-D-Lysine 384 well plates (20.000 cells/well; 20 μl/well). The lid covered plates are then incubated until use at 37° C./10% CO2. For dye loading, 20 μl of Calcium-4 assay kit solution (prepared according to the manufacturer's description in Ringer solution) are added to the cells and the plates are incubated for 80 min 37° C. and then 10 min at room temperature.
Controls, Compound Dilution and Assay Execution:
Each assay plate contained wells with “high” and “low” controls:
Low controls 1% DMSO/ringer solution+basal glutamate activation (defined as 100% CTL).
High controls 10 μM CDPPB+basal glutamate activation (defined as 200% CTL).
Test compounds are dissolved and diluted in DMSO to 100-fold the desired concentrations. In a second step, the compounds are diluted in Ringer solution such that the compounds are 4-fold more concentrated than the desired final assay concentration. The final DMSO concentration was 1%.
20 μl of each compound solution are then transferred to the assay plate and the Ca2+ kinetic is measured to determine any intrinsic compound activity. After 5 min incubation in the FLIPR device, the second stimulation with 20 μl of glutamate in Ringer solution (glutamate concentration adjusted to approximately 5% basal stimulation of the maximal possible glutamate effect) is added and the kinetic Ca2+ response of the wells was measured for the modulation effect.
The peak height of the Ca release related fluorescence signal (9-66) is used for the EC50. The EC50 of the modulation is calculated over a nonlinear regression with GraphPad Prism (Table 1).

T1 sequence (P41594 21-1212): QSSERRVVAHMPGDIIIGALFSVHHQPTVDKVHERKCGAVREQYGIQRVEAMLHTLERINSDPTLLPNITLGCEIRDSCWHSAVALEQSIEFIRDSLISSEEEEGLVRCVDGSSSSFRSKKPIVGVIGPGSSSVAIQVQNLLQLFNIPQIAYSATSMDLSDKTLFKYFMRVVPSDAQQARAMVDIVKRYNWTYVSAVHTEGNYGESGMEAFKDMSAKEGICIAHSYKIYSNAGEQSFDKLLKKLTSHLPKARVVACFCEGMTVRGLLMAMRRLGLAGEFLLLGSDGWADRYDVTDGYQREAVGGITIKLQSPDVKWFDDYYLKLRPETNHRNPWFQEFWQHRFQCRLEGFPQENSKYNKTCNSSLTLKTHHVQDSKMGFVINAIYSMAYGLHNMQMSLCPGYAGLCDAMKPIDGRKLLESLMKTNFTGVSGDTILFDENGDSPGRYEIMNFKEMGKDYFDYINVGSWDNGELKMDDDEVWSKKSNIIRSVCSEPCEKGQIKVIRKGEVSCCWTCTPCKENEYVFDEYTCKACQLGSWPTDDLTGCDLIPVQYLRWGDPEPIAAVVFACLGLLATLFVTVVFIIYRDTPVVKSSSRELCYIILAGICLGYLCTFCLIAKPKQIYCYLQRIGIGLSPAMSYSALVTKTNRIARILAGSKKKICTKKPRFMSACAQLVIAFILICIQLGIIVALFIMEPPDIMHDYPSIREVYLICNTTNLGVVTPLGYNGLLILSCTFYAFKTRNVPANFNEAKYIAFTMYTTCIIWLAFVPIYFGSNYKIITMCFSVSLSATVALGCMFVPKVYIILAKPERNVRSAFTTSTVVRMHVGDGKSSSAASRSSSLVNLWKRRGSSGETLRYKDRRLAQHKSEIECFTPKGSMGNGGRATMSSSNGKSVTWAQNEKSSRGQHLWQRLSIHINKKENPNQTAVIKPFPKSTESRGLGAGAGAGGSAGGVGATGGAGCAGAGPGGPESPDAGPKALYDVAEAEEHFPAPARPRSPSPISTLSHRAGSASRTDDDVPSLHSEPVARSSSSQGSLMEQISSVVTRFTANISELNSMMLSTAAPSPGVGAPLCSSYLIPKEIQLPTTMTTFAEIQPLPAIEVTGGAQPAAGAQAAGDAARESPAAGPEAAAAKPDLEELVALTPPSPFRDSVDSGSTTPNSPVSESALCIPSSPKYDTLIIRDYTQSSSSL

Structure (SMILES): Cc1cc(-c2cn(-c3ccc(F)cc3)c(CC(=O)N3CCN(c4ncncn4)CC3)n2)ccc1F [Example 7.04.28.]
- EC50: 24 nM

Structure (SMILES): COc1cc(N2CCN(C(=O)Cc3nc(-c4ccc(F)c(C)c4)cn3-c3ccccc3)CC2)ncn1 [Example 7.04.43.]
- EC50: 19 nM
